{"source": "patent US8981179B2", "about": "“Transgenic non-human animal and uses thereof” (Sanofi, priority 2009, dated 2015)", "key": {"mGluR7 [1]": {"biological_target": "T1, mGluR7 (Mus musculus, UniProt Q68ED2)", "T1 sequence (Q68ED2 35-915)": "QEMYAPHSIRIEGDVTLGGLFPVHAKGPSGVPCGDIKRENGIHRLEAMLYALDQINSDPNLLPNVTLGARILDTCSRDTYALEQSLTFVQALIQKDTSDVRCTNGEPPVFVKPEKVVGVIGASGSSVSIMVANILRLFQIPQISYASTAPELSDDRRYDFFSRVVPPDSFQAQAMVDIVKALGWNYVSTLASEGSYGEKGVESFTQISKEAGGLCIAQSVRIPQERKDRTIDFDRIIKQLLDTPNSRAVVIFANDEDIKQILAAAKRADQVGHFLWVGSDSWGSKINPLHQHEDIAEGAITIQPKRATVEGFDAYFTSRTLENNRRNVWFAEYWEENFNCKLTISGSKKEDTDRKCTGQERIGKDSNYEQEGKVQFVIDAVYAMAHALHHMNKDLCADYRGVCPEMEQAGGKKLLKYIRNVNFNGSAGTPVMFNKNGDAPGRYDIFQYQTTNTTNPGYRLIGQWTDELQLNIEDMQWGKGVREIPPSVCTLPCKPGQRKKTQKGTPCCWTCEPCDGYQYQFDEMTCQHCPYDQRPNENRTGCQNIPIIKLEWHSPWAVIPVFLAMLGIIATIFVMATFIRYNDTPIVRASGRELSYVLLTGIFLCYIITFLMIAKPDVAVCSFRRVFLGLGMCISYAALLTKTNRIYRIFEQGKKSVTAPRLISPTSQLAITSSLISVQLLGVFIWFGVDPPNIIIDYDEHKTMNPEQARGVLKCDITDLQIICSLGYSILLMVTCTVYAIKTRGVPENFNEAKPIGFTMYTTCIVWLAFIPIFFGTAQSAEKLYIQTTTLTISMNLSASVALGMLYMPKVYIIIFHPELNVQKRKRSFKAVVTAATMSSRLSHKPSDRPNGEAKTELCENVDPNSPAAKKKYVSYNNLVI", "test": "Primary cortical neurons CreLuc luciferase assay, Gi modulation via mGluR7", "assay_type": "cell-based", "parameters": "endogenous in cells; host or cells: primary cortical neurons, E18 embryos, CreLuc mouse line 187", "description": "(§1) A general schematic of the workflow for the isolation and compound treatment of primary neuronal cells from the CreLuc model is depicted in FIG. 9. Cortices or other brain subregions are removed from embryos, usually embryonic (E) day 17 or 18, but also as early as E14. The individual neurons are then isolated and plated onto 96 well assay plates. Assays are run either in triplicate or quadruplicate. The assays are run from day 3 in culture up until day 7 or day 10 in culture depending on the expression levels of the target GPCR. Compounds are added to the plates then at a set timepoint, Bright Glo (Promega, Cat #E2610) is added to the plates and the assay is then run on a TopCount or other luminometer.\nPrimary cell cultures from the CreLuc mice may be used to screen compounds that are capable of modulating Gi coupled receptors. […] Cortical neurons were harvested from E18 embryos. The assay was run at day 3 in culture. Forskolin was used at 10 μM to give a larger signal window to be used to detect Gi activity. The mGluR7 agonist, AMN082 was used in combination with forskolin at 1 nM, 10 nM, 100 nM and 1 μM. The assay was read on a TopCount with Bright Glo (Promega) at 4 hours, and 8 hours. […] The CreLuc mice can be used to screen for compounds that modulate Gq coupled receptors.\nHowever, to increase the signal window even wider, rolipram (blocks the breakdown of cAMP) was used in combination with forskolin. Primary cortical neurons were isolated from E18 embryos from line 187 which was previously determined to have inducible brain and spinal cord expression. The assay, in triplicates, was run at day 7 in culture for 6 hours. A dose curve, 10 μM down to 1 nM, for AMN082 was run in combination with 50 μM forskolin and 10 μM rolipram. The assay was read on a TopCount luminometer with Bright Glo substrate (Promega). […] All lines used were previously determined to have inducible luciferase expression levels in whole brain tissue extracts (data not shown). […] Bright Glo luciferase assay substrate was then added, and the assay read on a Topcount luminometer. […]"}, "mGluR7 [2]": {"biological_target": "T1, mGluR7", "test": "Whole brain slice luminescence, Gi agonist with isoproterenol", "assay_type": "cell-based", "parameters": "from tissue; host or cells: hippocampal brain slices, CreLuc mouse line 187", "settings": "line 187, 1 uM AMN082 in combination with 1 uM ISO", "procedure": "Whole brain slices were used to show the effects of compounds on luminescence in CreLuc mice (FIG. 8A, 8B). In general, brains from CreLuc mice can be harvested and then either cut into slices on a microtome or various subregions can also be dissected out and then sliced on a microtome. The slices can then be incubated with different compounds such as forskolin and rolipram, or GPCR specific compounds. Luciferase levels can then be measured with an IVIS bioimager or a photomultiplier with a carousel to take quantitative timecourse measurements.\nBrain slices from the hippocampal region of CreLuc mice (line #187) were incubated with 1 uM isoproterenol (Sigma, cat#5627) for 2 days. […] (FIG. 8A, bottom panel). Thus, isoproterenol was used to increase the luciferase signal window which allows for screening GPCR specific compounds such as Gi agonists. AMN082 (AMN, Tocris Bioscience, Cat. No. 2385) is an mGluR7 agonist and mGluR7 is a receptor that is coupled to Gi. When brain slices were treated with 1 uM ISO in combination with 1 uM AMN082, the luciferase signal was diminished in comparison to ISO treatment alone."}, "[3]": {"biological_target": "T2, adrenoceptor beta3 (Adrb3) (Mus musculus, UniProt P25962)", "T2 construct": "from tissue; host or cells: whole animal; luciferase read in tissue homogenates (adipose tissue, lung and others) and by bioimaging", "T2 sequence (P25962 whole entry)": "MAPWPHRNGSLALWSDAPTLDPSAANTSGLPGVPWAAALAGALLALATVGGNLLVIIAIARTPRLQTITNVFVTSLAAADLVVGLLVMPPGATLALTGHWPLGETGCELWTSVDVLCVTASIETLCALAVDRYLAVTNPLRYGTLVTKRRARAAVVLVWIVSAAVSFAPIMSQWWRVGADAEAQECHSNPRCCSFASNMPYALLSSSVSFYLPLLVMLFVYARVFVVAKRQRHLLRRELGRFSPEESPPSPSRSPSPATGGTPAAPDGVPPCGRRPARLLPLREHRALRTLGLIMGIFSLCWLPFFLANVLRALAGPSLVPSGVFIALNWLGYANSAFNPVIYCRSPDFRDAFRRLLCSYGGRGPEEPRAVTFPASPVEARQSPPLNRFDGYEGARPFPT", "test": "Induction of luciferase by Adrb3 agonist in CRE-Luc mice (tissue homogenates, bioimaging)", "assay_type": "in vivo", "settings": "1 mg/kg, ip", "procedure": "The luciferase assay was performed in tissue homogenates."}, "CB1": {"biological_target": "T3, CB1 (Mus musculus, UniProt P47746)", "T3 construct": "endogenous in cells; host or cells: primary cortical neurons, E18, CreLuc mouse lines 69, 187, 175, 219", "T3 sequence (P47746 whole entry)": "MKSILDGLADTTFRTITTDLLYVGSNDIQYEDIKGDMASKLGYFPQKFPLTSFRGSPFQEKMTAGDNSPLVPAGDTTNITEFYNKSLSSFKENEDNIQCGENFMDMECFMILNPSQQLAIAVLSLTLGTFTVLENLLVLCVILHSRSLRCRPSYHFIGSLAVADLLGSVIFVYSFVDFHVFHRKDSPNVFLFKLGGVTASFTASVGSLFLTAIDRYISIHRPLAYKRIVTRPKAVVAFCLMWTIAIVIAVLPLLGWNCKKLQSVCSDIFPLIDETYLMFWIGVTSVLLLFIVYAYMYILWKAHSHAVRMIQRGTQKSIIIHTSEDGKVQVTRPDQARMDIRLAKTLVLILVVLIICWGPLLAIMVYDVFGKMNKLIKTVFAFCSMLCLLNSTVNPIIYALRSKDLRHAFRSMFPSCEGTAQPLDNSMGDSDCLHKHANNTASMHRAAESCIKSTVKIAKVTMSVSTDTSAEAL", "test": "Primary cortical neurons CreLuc luciferase assay, Gi modulation by CB1 agonist", "assay_type": "cell-based", "procedure": "However, to increase the signal window even wider, rolipram (blocks the breakdown of cAMP) was used in combination with forskolin. Primary cortical neurons were isolated from E18 embryos from line 187 which was previously determined to have inducible brain and spinal cord expression. The assay, in triplicates, was run at day 7 in culture for 6 hours. A dose curve, 10 μM down to 1 nM, for AMN082 was run in combination with 50 μM forskolin and 10 μM rolipram. The assay was read on a TopCount luminometer with Bright Glo substrate (Promega). […] Gi modulation of luciferase expression in primary cortical neurons from different CreLuc lines by the CB1 agonist, CP 55,940 was performed in the presence of forskolin and rolipram (FIG. 15). Primary cortical neurons were harvested from lines 69, 187, 175 and 219 at E18. All lines used were previously determined to have inducible luciferase expression levels in whole brain tissue extracts (data not shown). The assays were run on day three in culture. The CB1 agonist was used at 10 μM, forskolin at 5 μM and rolipram at 10 μM. […] Bright Glo luciferase assay substrate was then added, and the assay read on a Topcount luminometer. […]\nGi modulation of luciferase in primary cortical neurons from CreLuc mice by the CB1 agonist, CP 55,940 was in a dose-dependent manner (FIG. 15B). […] The assay was read on a TopCount with BrightGlo (Promega) at 8 hours."}, "plasma cAMP": {"tested_on": "plasma cAMP", "settings": "Balb/c mice, 10 mg/kg, blood harvested after 20 minutes; cited from earlier work"}, "[4]": {"biological_target": "T4, D1 dopamine receptors (DRD1) (Mus musculus, UniProt Q61616)", "T4 construct": "Neurons were isolated from the cortices of line 187 E18 embryos; endogenous in cells; host or cells: primary cortical neurons (E18) and striatal neurons (E14), CreLuc mouse line 187", "T4 sequence (Q61616 whole entry)": "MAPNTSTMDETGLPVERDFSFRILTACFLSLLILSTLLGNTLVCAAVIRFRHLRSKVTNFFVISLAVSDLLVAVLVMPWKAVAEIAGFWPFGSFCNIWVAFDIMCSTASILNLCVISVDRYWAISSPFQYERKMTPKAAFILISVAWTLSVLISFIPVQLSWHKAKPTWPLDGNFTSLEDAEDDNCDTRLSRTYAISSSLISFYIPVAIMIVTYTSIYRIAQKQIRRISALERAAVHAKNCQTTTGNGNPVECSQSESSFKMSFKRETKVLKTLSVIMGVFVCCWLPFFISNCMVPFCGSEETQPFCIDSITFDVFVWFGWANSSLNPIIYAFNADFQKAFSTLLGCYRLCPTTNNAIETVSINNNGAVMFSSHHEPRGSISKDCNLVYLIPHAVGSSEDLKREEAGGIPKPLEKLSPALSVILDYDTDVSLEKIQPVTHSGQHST", "test": "Primary cortical neurons CreLuc luciferase assay, Gs modulation via DRD1", "assay_type": "cell-based", "settings": "4 hours", "description": "as §1\nThe assay was run in triplicates on day three in culture. Forskolin was used at 5 μM, rolipram at 10 μM and the Gs agonists, ADβR-isoproterenol; and Dopamine-SKF82958 (MFG, Cat #C130) at 10 μM. At 4 hours, Bright Glo was added and the assays run on a Topcount. Forskolin is a general activator of cAMP."}, "[5]": {"test": "Blood glucose in unfasted CRE-luc mice", "assay_type": "in vivo, mouse", "settings": "line 11, AVE0010 0.1 mg/kg, sc", "procedure": "The induction of CRE-Luc by AVE0010 is likely beta-cell-specific (FIG. 31). Animals were treated as described in FIG. 30. Blood glucose levels were measured by tail vein nicking on unfasted mice. Glucose levels were read on a Bayer glucometer. Glucose levels are shown as mg glucose/[…]. Fold induction is the luciferase bioimaging levels of AVE10 dosing versus the baseline signals. Blood glucose levels (BG) were increased by STZ (upper left panel). Non-fasting BG levels were reduced by AVE0010 (0.1 mg/kg, sc)."}, "[6]": {"biological_target": "T5, glucagon-like peptide 1 receptor (GLP-1R) (Mus musculus, UniProt O35659)", "T5 construct": "from tissue; host or cells: whole animal; bioimaging and tissue homogenates, signal in the pancreas", "T5 sequence (O35659 22-463)": "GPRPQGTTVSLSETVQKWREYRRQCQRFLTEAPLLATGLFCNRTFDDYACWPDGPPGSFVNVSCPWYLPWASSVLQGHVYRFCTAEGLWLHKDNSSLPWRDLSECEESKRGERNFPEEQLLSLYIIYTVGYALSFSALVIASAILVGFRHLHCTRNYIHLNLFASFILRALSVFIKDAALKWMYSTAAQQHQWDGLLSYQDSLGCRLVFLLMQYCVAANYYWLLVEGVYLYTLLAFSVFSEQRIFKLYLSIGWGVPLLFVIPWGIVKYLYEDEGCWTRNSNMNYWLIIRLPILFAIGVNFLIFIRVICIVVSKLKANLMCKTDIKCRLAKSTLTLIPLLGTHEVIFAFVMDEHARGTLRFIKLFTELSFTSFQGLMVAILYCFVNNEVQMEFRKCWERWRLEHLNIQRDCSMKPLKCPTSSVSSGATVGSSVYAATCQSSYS", "test": "Induction of luciferase reporter by GLP-1R agonist in CRE-Luc mice (bioimaging, tissue homogenates)", "assay_type": "in vivo", "procedure": "Transgene activation co-localizes with tissue specific receptor activation as exemplified by the induction of luciferase reporter by the glucagon-like peptide 1 receptor (GLP-1R) agonist, AVE0010, which was studied in three independent lines of CRE-Luc mice (FIG. 28). The GLP-1R is Gs coupled. Baseline images were acquired on day 1. On day 2, mice were treated with AVE0010 (0.1 mg/kg, sc) and imaged after 4 hours. Folds of induction over baseline were indicated at the bottom. […] Luciferase activities in 8 different tissues were measured for lines 11, 16 and 90 (FIG. 29) following treatment with AVE0010 (0.1 mg/kg, s.c.) for 4 hours. […] The activity of AVE0010 is limited to the pancreas even though GLP-1R is found in different tissue types.\nThe induction of Cre-Luc by AVE0010 is likely beta-cell mediated. The effects of the beta-cell toxin streptozotocin (STZ) on the induction of CRE-Luc by AVE0010 was investigated (FIG. 30). Male CRE-luc mice were imaged before and after AVE0010 (0.1 mg/kg, sc) treatment. […] Then, the animals were treated with vehicle or STZ (200 mpk, ip). Four days later, they were imaged again after AVE0010 treatment."}}}
{"molecule": "Cl.Cl.c1ccc(C(NCCNC(c2ccccc2)c2ccccc2)c2ccccc2)cc1", "note": "[AMN082]", "values": [{"measurement": "luciferase levels versus forskolin only", "setting": "mGluR7 [1]; cortical neurons line 187, day 3, 10 μM forskolin, 100 nM and 1 μM AMN082, 4 hours and 8 hours", "result": "Significant decreases"}, {"measurement": "EC50", "setting": "mGluR7 [1]; cortical neurons line 187, day 3, in combination with 10 μM forskolin, 4 hours, read-out: calculated EC50 (Gi modulation of luciferase)", "result": 174, "unit": "nM"}, {"measurement": "decreases in luciferase levels vs. forskolin and rolipram controls", "setting": "mGluR7 [1]; cortical neurons line 187, day 7, 6 hours, 50 μM forskolin and 10 μM rolipram, at 1 μM, 100 nM and 1 nM, p<0.0005", "result": "59-61%"}, {"measurement": "luciferase signal in brain slices in comparison to ISO treatment alone", "setting": "mGluR7 [2]", "result": "diminished"}]}
{"molecule": "C[C@H](Cc1ccc2c(c1)OC(C(=O)[O-])(C(=O)[O-])O2)NC[C@H](O)c1cccc(Cl)c1.[Na+].[Na+]", "note": "[CL316,243]", "values": [{"measurement": "induction via bioimaging", "setting": "[3]; 4 lines, BLI 4-5 hours after treatment", "result": "visible induction"}, {"measurement": "induction of luciferase in the adipose tissue and lung (tissue homogenates)", "setting": "[3]; 7 of 12 independent transgenic lines screened", "result": "greater than 10 fold"}]}
{"molecule": "CCCCCCC(C)(C)c1ccc([C@@H]2C[C@H](O)CC[C@H]2CCCO)c(O)c1", "note": "[CP 55,940]", "values": [{"measurement": "luciferase levels, agonist plus forskolin and rolipram versus forskolin and rolipram alone", "setting": "CB1; cortical neurons line 187, 10 μM, 1 μM and 100 nM, forskolin and rolipram 10 μM, 8 hours", "result": "Significant decreases"}, {"measurement": "luciferase signal with addition of CB1 agonist in different CreLuc lines", "setting": "CB1; lines 69, 187, 175 and 219, 10 μM with forskolin 5 μM and rolipram 10 μM, four and twenty-four hours", "result": "Decreased signals"}]}
{"molecule": "COc1ccc(C2CNC(=O)NC2)cc1O[C@H]1C[C@@H]2CC[C@H]1C2", "note": "[CP-80,633]", "values": [{"measurement": "plasma cAMP levels", "setting": "plasma cAMP", "result": "significantly increase"}]}
{"molecule": "C=CCN1CCc2c(cc(O)c(O)c2Cl)C(c2ccccc2)C1", "note": "(stereo not drawn) [SKF82958]", "values": [{"measurement": "induction of luciferase in combination with rolipram compared to rolipram alone", "setting": "[4]; cortical neurons line 187, 10 μM with 10 μM rolipram", "result": 2, "unit": "fold"}, {"measurement": "luciferase levels, agonist alone", "setting": "[4]; cortical neurons line 187, day 3, 10 μM", "result": "did not significantly increase"}]}
{"molecule": "AVE0010: glucagon-like peptide 1 receptor (GLP-1R) agonist", "values": [{"measurement": "non-fasting BG levels", "setting": "[5]", "result": "reduced"}, {"measurement": "luciferase activity in tissue homogenates of 8 tissues", "setting": "[6]; lines 11, 16 and 90, 0.1 mg/kg, s.c., 4 hours", "result": "pancreas-specific induction of luciferase"}, {"measurement": "bioimaging response of mice before and after treatment", "setting": "[6]; male line 11, 0.1 mg/kg, sc", "result": "responsive"}, {"measurement": "transgene activation in the pancreas (bioimaging)", "setting": "[6]; three independent lines, 0.1 mg/kg, sc, imaged after 4 hours", "result": "strong induction"}]}
